Assays:
[1] = molecular target: T1, COX-1 (Homo sapiens, UniProt P23219); test: Assay for the COX-1 inhibitory activity using U-937 (PGE2 inhibition); format: cell-based; conditions: 1 μM test compound; U-937 human lymphoma cells; PGE2 after arachidonic acid; read-out: Cyclooxygenase (COX) Inhibition (%) COX-1 (1 μM)
T1 construct: host or cells: U-937 human lymphoma cells
Experimental: The collected cells were diluted with HBSS (×1, Hank's balanced salt solution) to a concentration of 1×10^6 cells/ml. 1 ml of the dilute cell solution was placed into each well of 12-well plates. 5 μl of 1 μM solution of a test compound in DMSO and 5 μl of DMSO as a control were added to the wells. The wells were incubated in CO2 incubator at 37° C. for 15 minutes. Separately, 10 mM stock solution of arachidonic acid in ethanol was diluted ten times in ethanol to prepare 1 mM solution of arachidonic acid. Arachidonic acid acts as a substrate. 10 μl of the 1 mM solution of arachidonic acid was added to each well and incubated at CO2 incubator at 37° C. for 30 minutes. The cell solution of each well was placed in a centrifuge test tube and centrifuged at 10,000 rpm at 4° C. for 5 minutes. The concentration of PGE2 in the collected cells and the supernatant was quantified by means of a monoclonal kit (Cayman Chemicals). The percentages of PGE2 inhibition in a group of the test compound-treated cells in relation to a group of the DMSO-treated cells were calculated. Based on the calculated values, the COX-1 inhibitory activities were evaluated.
(§1) The percentages of the COX inhibition were calculated according to the following equation: % Inhibition=(concentration of PGE2 in test compound-untreated sample−concentration of PGE2 in test compound-treated sample)/(concentration of PGE2 in test compound-untreated sample)×100

[2] = molecular target: T2, COX-2 (Mus musculus, UniProt Q05769); test: Assay for the COX-2 inhibitory activity using RAW 264.7 cell line (PGE2 inhibition); format: cell-based; conditions: RAW264.7, 10 nM test compound, RAW 264.7 cells, interferon γ and LPS, 18 hours, read-out: Cyclooxygenase (COX) Inhibition (%) COX-2 (10 nM)
T2 construct: host or cells: RAW 264.7 cells, aspirin-pretreated, then induced with interferon gamma and LPS
T2 sequence (Q05769 18-604): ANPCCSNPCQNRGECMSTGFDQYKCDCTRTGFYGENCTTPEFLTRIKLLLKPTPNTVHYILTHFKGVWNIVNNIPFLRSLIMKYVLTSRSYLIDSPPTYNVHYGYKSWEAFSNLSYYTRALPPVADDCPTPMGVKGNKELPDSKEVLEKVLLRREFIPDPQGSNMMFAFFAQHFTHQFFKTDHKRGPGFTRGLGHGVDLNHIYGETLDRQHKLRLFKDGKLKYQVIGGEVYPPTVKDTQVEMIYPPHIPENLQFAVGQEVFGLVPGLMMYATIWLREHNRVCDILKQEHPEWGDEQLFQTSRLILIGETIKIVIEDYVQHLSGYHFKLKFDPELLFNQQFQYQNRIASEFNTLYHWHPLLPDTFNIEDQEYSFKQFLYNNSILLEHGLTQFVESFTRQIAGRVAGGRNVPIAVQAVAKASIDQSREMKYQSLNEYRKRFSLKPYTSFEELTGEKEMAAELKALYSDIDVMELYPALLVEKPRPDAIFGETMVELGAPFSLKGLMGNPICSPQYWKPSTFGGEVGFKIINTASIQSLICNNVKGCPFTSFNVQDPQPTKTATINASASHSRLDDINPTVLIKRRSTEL
Experimental: Each well was treated with 250 μM of aspirin and incubated at 37° C. for 2 hours. After the culture media were replaced with new culture media, the new culture media were treated with a test compound (10 nM) and incubated for 30 minutes. Then, each well was treated with interferon γ (100 units/ml) and lipopolysaccharide (LPS, 100 ng/ml) and incubated for 18 hours. The culture media were transferred to other test tubes. The concentration of PGE2 was quantified by means of the EIA kit (Cayman Chemicals).
as §1

T1 sequence (P23219 24-599): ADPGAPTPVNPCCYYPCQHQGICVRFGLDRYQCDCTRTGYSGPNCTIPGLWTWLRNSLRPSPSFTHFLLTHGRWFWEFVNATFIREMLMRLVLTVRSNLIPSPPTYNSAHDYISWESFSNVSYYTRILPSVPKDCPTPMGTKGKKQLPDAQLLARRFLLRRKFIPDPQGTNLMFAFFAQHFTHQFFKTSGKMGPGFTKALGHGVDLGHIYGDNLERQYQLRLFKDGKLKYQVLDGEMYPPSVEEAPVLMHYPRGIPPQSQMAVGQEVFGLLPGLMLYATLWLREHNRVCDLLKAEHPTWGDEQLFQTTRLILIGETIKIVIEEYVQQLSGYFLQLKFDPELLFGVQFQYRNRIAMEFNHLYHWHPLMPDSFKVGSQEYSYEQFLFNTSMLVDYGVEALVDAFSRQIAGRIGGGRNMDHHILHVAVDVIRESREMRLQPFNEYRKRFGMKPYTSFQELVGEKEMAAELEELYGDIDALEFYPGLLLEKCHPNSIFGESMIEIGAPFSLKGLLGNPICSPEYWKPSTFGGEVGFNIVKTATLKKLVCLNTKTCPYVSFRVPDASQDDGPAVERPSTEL

inhibition at 1 µM [1] [%] | inhibition at 0.01 µM [2] [%] | Compound
35.5 | 11.2 | COc1ccc(-c2nc(O)nn2-c2ccc(S(N)(=O)=O)cc2)cc1 [Example 16, 4-[3-hydroxy-5-(4-methoxyphenyl)-1,2,4-triazole-1-yl]-benzenesulfonamide]
48.8 | 10.5 | CCOc1ccc(-c2nc(O)nn2-c2ccc(S(N)(=O)=O)cc2)cc1 [Example 17, 4-[3-hydroxy-5-(4-ethoxyphenyl)-1,2,4-triazole-1-yl]-benzenesulfonamide]
19.5 | 6.7 | NS(=O)(=O)c1ccc(-n2nc(O)nc2-c2ccc(F)cc2)cc1 [Example 18, 4-[3-hydroxy-5-(4-fluorophenyl)-1,2,4-triazole-1-yl]-benzenesulfonamide]
37.4 | 12.3 | NS(=O)(=O)c1ccc(-n2nc(O)nc2-c2ccc(Br)cc2)cc1 [Example 19, 4-[3-hydroxy-5-(4-bromophenyl)-1,2,4-triazole-1-yl]-benzenesulfonamide]
26.4 | 11 | COc1ccc(-c2nc(O)nn2-c2ccc(S(N)(=O)=O)cc2)cc1F [Example 20, 4-[3-hydroxy-5-(3-fluoro-4-methoxyphenyl)-1,2,4-triazole-1-yl]-benzenesulfonamide]
25.7 | 12.6 | NS(=O)(=O)c1ccc(-n2nc(S)nc2-c2ccccc2)cc1 [Example 21, 4-(3-mercapto-5-phenyl-1,2,4-triazole-1-yl)-benzenesulfonamide]
11.1 | 36.4 | CS(=O)(=O)c1ccc(-n2nc(O)nc2-c2ccccc2)cc1 [Example 22, 1-(4-methanesulfonylphenyl)-5-phenyl-1H-1,2,4-triazole-3-ol]
13.2 | 35.1 | COc1ccc(-c2nc(O)nn2-c2ccc(S(C)(=O)=O)cc2)cc1 [Example 23, 1-(4-methanesulfonylphenyl)-5-(4-methoxyphenyl)-1H-1,2,4-triazole-3-ol]
16.4 | 31.2 | COc1ccc(-c2nc(OC)nn2-c2ccc(S(N)(=O)=O)cc2)cc1 [Example 24, 4-[3-methoxy-5-(4-methoxyphenyl)-1,2,4-triazole-1-yl]-benzenesulfonamide]
23.2 | 27.8 | COc1nc(-c2ccccc2)n(-c2ccc(S(N)(=O)=O)cc2)n1 [Example 25, 4-(3-methoxy-5-phenyl-1,2,4-triazole-1-yl)-benzenesulfonamide]
44.5 | 13.5 | COc1nc(-c2ccc(F)cc2)n(-c2ccc(S(N)(=O)=O)cc2)n1 [Example 26, 4-[3-methoxy-5-(4-fluorophenyl)-1,2,4-triazole-1-yl]-benzenesulfonamide]
11.2 | 11.5 | COc1nc(-c2ccc(Br)cc2)n(-c2ccc(S(N)(=O)=O)cc2)n1 [Example 27, 4-[3-methoxy-5-(4-bromophenyl)-1,2,4-triazole-1-yl]-benzenesulfonamide]
21.2 | 10.5 | COc1nc(-c2ccc(OC)c(F)c2)n(-c2ccc(S(N)(=O)=O)cc2)n1 [Example 28, 4-[3-methoxy-5-(3-fluoro-4-methoxyphenyl)-1,2,4-triazole-1-yl]-benzenesulfonamide]
17.7 | 11.1 | CSc1nc(-c2ccccc2)n(-c2ccc(S(N)(=O)=O)cc2)n1 [Example 29, 4-(3-methylthio-5-phenyl-1,2,4-triazole-1-yl)-benzenesulfonamide]
16.4 | 13.2 | CCOc1nc(-c2ccc(OC)cc2)n(-c2ccc(S(N)(=O)=O)cc2)n1 [Example 30, 4-[3-ethoxy-5-(4-methoxyphenyl)-1,2,4-triazole-1-yl]-benzenesulfonamide]
15.5 | 16.4 | CCOc1nc(-c2ccccc2)n(-c2ccc(S(N)(=O)=O)cc2)n1 [Example 31, 4-(3-ethoxy-5-phenyl-1,2,4-triazole-1-yl)-benzenesulfonamide]
21.4 | 11.5 | CCOc1nc(-c2ccc(F)cc2)n(-c2ccc(S(N)(=O)=O)cc2)n1 [Example 32, 4-[3-ethoxy-5-(4-fluorophenyl)-1,2,4-triazole-1-yl]-benzenesulfonamide]
23.7 | 10.5 | CCOc1nc(-c2ccc(OC)c(F)c2)n(-c2ccc(S(N)(=O)=O)cc2)n1 [Example 33, 4-[3-ethoxy-5-(3-fluoro-4-methoxyphenyl)-1,2,4-triazole-1-yl]-benzenesulfonamide]
31.2 | 9.5 | CCSc1nc(-c2ccccc2)n(-c2ccc(S(N)(=O)=O)cc2)n1 [Example 34, 4-(3-ethylthio-5-phenyl-1,2,4-triazole-1-yl)-benzenesulfonamide]
23.4 | 16.1 | CCCOc1nc(-c2ccc(OC)cc2)n(-c2ccc(S(N)(=O)=O)cc2)n1 [Example 35, 4-[3-propoxy-5-(4-methoxyphenyl)-1,2,4-triazole-1-yl]-benzenesulfonamide]
27 | 17.2 | CCCOc1nc(-c2ccc(F)cc2)n(-c2ccc(S(N)(=O)=O)cc2)n1 [Example 36, 4-[3-propoxy-5-(4-fluorophenyl)-1,2,4-triazole-1-yl]-benzenesulfonamide]
12 | 22.3 | COc1ccc(-c2nc(OC3CCCC3)nn2-c2ccc(S(N)(=O)=O)cc2)cc1 [Example 37, 4-[3-cyclopentyloxy-5-(4-methoxyphenyl)-1,2,4-triazole-1-yl]-benzenesulfonamide]
17.4 | 33.1 | NS(=O)(=O)c1ccc(-n2nc(OC3CCCC3)nc2-c2ccc(F)cc2)cc1 [Example 38, 4-[3-cyclopentyloxy-5-(4-fluorophenyl)-1,2,4-triazole-1-yl]-benzenesulfonamide]
15.5 | 20.7 | COc1ccc(-c2nc(OC3CCCCC3)nn2-c2ccc(S(N)(=O)=O)cc2)cc1 [Example 39, 4-[3-cyclohexyloxy-5-(4-methoxyphenyl)-1,2,4-triazole-1-yl]-benzenesulfonamide]
16.2 | 16.2 | NS(=O)(=O)c1ccc(-n2nc(OC3CCCCC3)nc2-c2ccc(F)cc2)cc1 [Example 40, 4-[3-cyclohexyloxy-5-(4-fluorophenyl)-1,2,4-triazole-1-yl]-benzenesulfonamide]
27.7 | 15.5 | COc1ccc(-c2nc(OCC#N)nn2-c2ccc(S(N)(=O)=O)cc2)cc1 [Example 41, 4-[3-cyanomethoxy-5-(4-methoxyphenyl)-1,2,4-triazole-1-yl]-benzenesulfonamide]
26.6 | 13.3 | N#CCOc1nc(-c2ccc(F)cc2)n(-c2ccc(S(N)(=O)=O)cc2)n1 [Example 42, 4-[3-cyanomethoxy-5-(4-fluorophenyl)-1,2,4-triazole-1-yl]-benzenesulfonamide]
30.4 | 16.7 | C#CCOc1nc(-c2ccc(OC)cc2)n(-c2ccc(S(N)(=O)=O)cc2)n1 [Example 43, 4-[3-prop-2-ynyloxy-5-(4-methoxyphenyl)-1,2,4-triazole-1-yl]-benzenesulfonamide]
27.2 | 14.5 | C#CCOc1nc(-c2ccc(F)cc2)n(-c2ccc(S(N)(=O)=O)cc2)n1 [Example 44, 4-[3-prop-2-ynyloxy-5-(4-fluorophenyl)-1,2,4-triazole-1-yl]-benzenesulfonamide]

Source: patent US7473700B2, “1,2,4-triazole derivatives, processes for the preparation thereof, and pharmaceutical compositions containing the same” (CJ Corporation, priority 2002, dated 2009)
